Test results taken from patent US8637684B2, “Tautomycetin and tautomycetin analog biosynthesis” (Wisconsin Alumni Research Foundation, priority 2010, dated 2014).
pIC50: −log10 of the molar value.

What was measured:
[1] = system: TCR-mediated tyrosine phosphorylation in Jurkat T cells; assay: Anti-CD3 (TCR) induced tyrosine phosphorylation in Jurkat T cells, immunoblot; type: cell-based; details: 2-4 μM, 2 hours pretreatment, anti-CD3 stimulation
Experimental: (§1) Jurkat T cells were grown at 37° C. under an atmosphere of 5% CO2 in RPMI medium 1640 supplemented with 10% FBS. Cells were pretreated with different concentrations of TTN, TTN D-1, or TTM for 2 hours and stimulated with […] anti-CD3 antibody (OKT3; eBioscience) for 5 min and 30 min, respectively. Subsequently, cells were spinned down at 2000 rpm in 4° C., and cell pellets were lysed in 50 mM Tris-HCl (pH 7.5), 150 mM NaCl, 10% glycerol, 1% NP-40, 50 mM NaF, 10 mM pyrophosphate, 5 mM idoacetate, 1 mM sodium orthovanadate, and the protease inhibitor mixture. After 30 min lysing on ice, the cell lysates were centrifuged at 13,200 rpm for 15 min. Total cellular proteins were separated by SDS/PAGE and transferred electrophoretically to nitrocellulose membrane, which was immunoblotted by appropriate antibodies followed by incubation with HRP-conjugated secondary antibodies. Blots were developed using Pierce Pico ECL reagent (Thermo) according to the manufacturer's instructions.
(§2) TTN induces immunosuppression by suppression of TCR-mediated tyrosine phosphorylation and ERK1/2 activity in T cells (Shim et al., 2002). However, the mechanism of action for TTN's ability to block TCR signaling remains undefined. […]

[2] = system: TCR-mediated ERK1/2 activation in Jurkat T cells; assay: Anti-CD3 (TCR) induced ERK1/2 activation in Jurkat T cells, immunoblot; type: cell-based; details: 2 hours pretreatment, anti-CD3 stimulation
Experimental: as §1, §2

PP1 = details: literature values; cited from earlier work
[3] = system: panel of PTPs (PTP1B, SHP1, SHP2, Lyp, HePTP, Meg2, FAP1, CD45, LAR, PTPα, VHR, VHX, Cdc14, low molecular weight PTP); assay: Screen against a panel of PTPs at 10 μM compound (pNPP hydrolysis); type: biochemical; details: pH 7, 25° C.
Experimental: The PTP activity was assayed using pNPP as a substrate at 25° C. in 50 mM 3,3-dimethylglutarate buffer, pH 7.0, containing 1 mM EDTA with an ionic strength of 0.15 M adjusted by NaCl. TTM, TTN and the engineered analogs were analyzed for inhibition of a panel of PTPs at 10 μM compound concentration. For each enzyme screened, test compounds were diluted to 20 μM in 100 μL and combined with 50 μL pNPP at a concentration of 4×Km. The reaction was initiated by the addition of 50 μL of 4× concentrated enzyme and pNPP was allowed to convert to the product p-nitrophenol. The reaction was quenched by the addition of 50 μL of 5N NaOH. Nonenzymatic hydrolysis of pNPP was corrected by measuring the control without the addition of enzyme. Production of p-nitrophenol was monitored by a Spectra MAX385 microplate spectrophotometer (Molecular Devices) at 405 nm using a molar extinction coefficient of 18,000 M^−1 cm^−1. IC50 values were calculated by fitting the absorbance at 405 nm versus inhibitor concentration to the following equation: AI/A0=IC50/(IC50+[I]) where AI is the absorbance at 405 nm of the sample in the presence of inhibitor; Ao is the absorbance at 405 nm in the absence of inhibitor; and [I] is the concentration of the inhibitor. […]

SHP2 = molecular target: T1, SHP2 (Homo sapiens, UniProt Q06124); assay: PTP activity assay with pNPP as substrate: SHP2; type: biochemical
T1 construct: The expression and purification of the SHP2 catalytic domain (residues 262-528) were described previously; made in house
T1 sequence (Q06124 262-528): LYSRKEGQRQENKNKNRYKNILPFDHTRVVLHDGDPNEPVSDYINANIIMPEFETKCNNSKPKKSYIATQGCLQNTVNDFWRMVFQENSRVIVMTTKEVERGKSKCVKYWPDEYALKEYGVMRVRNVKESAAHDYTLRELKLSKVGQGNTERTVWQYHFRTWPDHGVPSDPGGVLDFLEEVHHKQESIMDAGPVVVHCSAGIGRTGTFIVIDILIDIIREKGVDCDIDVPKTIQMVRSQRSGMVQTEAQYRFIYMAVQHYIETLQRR
Experimental: The effect of the compounds on PTP-catalyzed hydrolysis of p-nitrophenyl phosphate (pNPP) was assessed at pH 7 and 25° C. Members of the PTP superfamily that were included in the screen included the cytosolic PTPs, PTP1B, SHP1, SHP2, Lyp, HePTP, Meg2, and FAP1, the receptor-like PTPs, CD45, LAR, and PTPα, the dual specificity phosphatases VHR, VHX, and Cdc14, and the low molecular weight PTP.
Therefore, all of the IC50 values reported in this study directly reflect the true affinity of the compound for the enzymes tested.

PP2A = details: literature values; cited from earlier work

In the case of `CO[C@H]([C@H](O)CC(=O)[C@@H](C)[C@@H](O)CC[C@@H](C)[C@@H]1O[C@]2(CC[C@@H](C)[C@H](CC[C@H](C)C(C)=O)O2)CC[C@@H]1C)[C@H](OC(=O)C[C@@H](O)C1=C(C)C(=O)OC1=O)C(C)C` [TTM, tautomycin, reference compound], the “effect on TCR-mediated tyrosine phosphorylation” value [1] is given as “had no effect”, the “effect on TCR-mediated ERK1/2 activation” value [2] is given as “no appreciable change” and the pIC50 (PP1) is given as 7.49 to 7.66. The “inhibitory activity against the panel of PTPs” value [3] was “neither TTM nor its analogs exhibited any inhibitory activity”, the “SHP2 inhibitory activity (in words)” value (SHP2) was “does not inhibit SHP2 activity” and the pIC50 (PP2A) was 7.49 to 7.66.
